Values of other authors, collected in patent US20060058225A1, “Used of inhibitors of phospholipase a2 for the treatment, prevention or diagnosis of neural inflammatory or demyelinating disease” (McGill University, priority 2002, published 2006).
Read-outs that look alike come from different tables or passages of the source.

Assays:
[1] = system: sPLA2
[2] = system: EAE; conditions: for disease severity score in treated mice: timing of treatment not stated
[3] = system: EAE
[4] = system: MS; conditions: for effect on relapses: MS patients
[5] = target: T1, cPLA2 (Homo sapiens, UniProt P47712)
T1 sequence (P47712 1-749): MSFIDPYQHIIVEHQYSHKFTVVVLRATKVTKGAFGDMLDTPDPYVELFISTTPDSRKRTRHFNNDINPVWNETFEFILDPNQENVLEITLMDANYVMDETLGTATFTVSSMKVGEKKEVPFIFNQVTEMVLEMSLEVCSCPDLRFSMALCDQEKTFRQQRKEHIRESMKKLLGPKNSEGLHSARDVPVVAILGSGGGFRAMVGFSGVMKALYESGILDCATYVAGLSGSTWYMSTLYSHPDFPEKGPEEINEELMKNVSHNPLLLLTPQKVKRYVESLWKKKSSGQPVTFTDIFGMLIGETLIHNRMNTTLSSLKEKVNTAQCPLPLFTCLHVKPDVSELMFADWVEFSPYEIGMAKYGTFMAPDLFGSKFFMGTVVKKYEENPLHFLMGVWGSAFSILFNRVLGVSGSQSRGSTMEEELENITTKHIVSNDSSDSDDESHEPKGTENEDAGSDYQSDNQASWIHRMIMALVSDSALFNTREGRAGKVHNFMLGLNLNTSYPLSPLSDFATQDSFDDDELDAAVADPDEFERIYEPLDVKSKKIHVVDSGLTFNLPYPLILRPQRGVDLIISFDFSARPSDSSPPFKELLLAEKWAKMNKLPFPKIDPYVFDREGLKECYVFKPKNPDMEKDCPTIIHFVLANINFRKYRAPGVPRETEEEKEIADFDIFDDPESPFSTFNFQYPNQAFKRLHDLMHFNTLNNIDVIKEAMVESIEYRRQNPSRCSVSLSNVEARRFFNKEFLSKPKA

[6] = system: Ca++-independent PLA2
[7] = system: EAE; conditions: guinea pigs
[8] = system: EAE; remark: listed apart in the source
[9] = system: 180 kDa calcium-dependent form of cPLA2; conditions: isolated from human brain
[10] = treatment given after symptoms occurred

Q: Which “inhibition of sPLA2 activity” value [1] does the source give for `O=C(CBr)c1ccc(Br)cc1` [p-bromophenacyl bromide] here?
A: The value was “blocked”.

Q: Which results are given for estrogen?
A: delay of disease onset ([2]; mice): about 10 days; reduction of EAE incidence ([2]; mice, timing not given): ~30%; disease severity score in treated mice [2]: 1.5

Q: For “MT-II: Metallothinine (MT), thought to protect cells from reactive oxygen species”, which clinical score ([3]; rats treated starting at the day of onset of symptoms, controls 4.5) is on record?
A: Its clinical score is 2.

Q: Which “clinical score in treated mice” value ([2]; treatment before symptoms appeared (cuprizone: one week before EAE induction)) does the source give for `O=C(NN=C1CCCCC1)C(=O)NN=C1CCCCC1` [cuprizone] here?
A: Its value is 3.3.

Q: For Glatiramer acetate, which effect on relapses [4] is on record?
A: The effect on relapses was “decreases the rate of relapse”.

Q: What about the side effects ([4]; human, in vivo) of the same molecule?
A: Its side effects is “cardiovascular problems such as chest pain, flushing and tachycardia”.

Q: With `O=C1O/C(=C/Br)CCC1c1cccc2ccccc12` (stereo not shown) [bromoenol lactone] as the molecule, how does the “inhibition of cPLA2” value [5] read?
A: Its value is “inhibitors”.

Q: And the “inhibition of Ca++-independent PLA2” value [6]?
A: Its value is “inhibitors”.

Q: For `CCCOc1cc([C@]2(C)CNC(=O)O2)ccc1OC` [Mesopram], which “clinical score in treated mice” value ([2]; treatment after symptoms began / at first clinical signs) is on record?
A: The value was 2.7.

Q: What about the EAE occurrence ([3]; rats treated before the onset of symptoms) of the same molecule?
A: The EAE occurrence was “prevented”.

Q: For `O=C(O)c1cc(/N=N/c2ccc(S(=O)(=O)Nc3ccccn3)cc2)ccc1O` [sulfasalazine], which disease incidence [7] is on record?
A: Its disease incidence is “reduced disease incidence”.

Q: Which results are given for `CC1=C(/C=C/C(C)=C/C=C/C(C)=C/C(N)=O)C(C)(C)CCC1` [retinamide]?
A: relapse ([8]; given after disease symptoms appeared): no relapse; clinical grade, end of course ([8]; given prior to EAE induction): 0.75; relapse ([8]; given prior to EAE induction): no sign of relapse; clinical grade reached ([8]; given prior to EAE induction, controls 3 during relapses): 2; clinical grade, end of course [8, 10]: 2; clinical grade, start of course [8, 10]: 4

Q: With bromophenacyl bromide as the molecule, how does the “inhibition of 180 kDa calcium-dependent cPLA2” value [9] read?
A: Its value is “inhibited”.

Q: Which effect on relapses [4] does the source give for IFN-γ: interferon gamma here?
A: The effect on relapses was “increases the severity of the rate of relapse”.

Q: Which “mean clinical grade/score in treated rats” value ([3]; rats) does the source give for `CN1C(C(=O)Nc2ccccn2)=C(O)c2ccccc2S1(=O)=O` [piroxicam] here?
A: Its value is 1.5.

Q: For `NS(=O)(=O)c1cccc2c1c([N+](=O)[O-])cc1nc(O)c(O)nc12` [NBQX], which “clinical score in treated animals” value ([8]; in vivo) is on record?
A: The value was 1.5.

Q: What does the source list for `O=C1c2c(O)ccc(O)c2C(=O)c2c(NCCNCCO)ccc(NCCNCCO)c21` [mitroxantrone]?
A: effect on relapses [4]: reduces relapse rate; side effects ([4]; patients): cardiac toxicity

B1: MBP: myelin basic protein fed for oral tolerance (protein, UniProt P02686 1-304, looked up)
Myelin basic protein: MGNHAGKRELNAEKASTNSETNRGESEKKRNLGELSRTTSEDNEVFGEADANQNNGTSSQDTAVTDSKRTADPKNAWQDAHPADPGSRPHLIRLFSRDAPGREDNTFKDRPSESDELQTIQEDSAATSESLDVMASQKRPSQRHGSKYLATASTMDHARHGFLPRHRDTGILDSIGRFFGGDRGAPKRGSGKDSHHPARTAHYGSLPQKSHGRTQDENPVVHFFKNIVTPRTPPPSQGKGRGLSLSRFSWGAEGQRPGFGYGGRASDYKSAHKGFKGVDAQGTLSKIFKLGGRDSRSGSPMARR
Q: What does the source list for B1?
A: disease severity score in treated mice [2]: 0.6; maximum disease severity score ([3]; rats fed prior to disease induction, control 4): 1.4; reduction of EAE incidence ([8]; animals, species not given): 80%
